Results published in ChEMBL document CHEMBL4680194, “Synthesis and biological evaluation of 1,2,4-triazole derivatives as potential neuroprotectant against ischemic brain injury” (Eur J Med Chem, 2020).
The source made the active and inactive calls. The rule behind the calls is not given here.

What was measured:
[1] = Tmax in Sprague-Dawley rat at 2 mg/kg, iv measured upto 24 hrs by LC-MS/MS analysis; type: ADME, organism-based; settings: in vivo
PC-12 [2] = experiment: Antioxidant activity in rat PC-12 cells assessed as reduction in H2O2-induced ROS level incubated for 1 hr followed by H2O2 stimulation and measured after 5 hrs by DCFH-DA staining based fluorescence microscopy; type: functional, cell-based; settings: dose 2.5-10 µM, time 6.0 hrs
[3] = molecular target: T1, Nuclear factor erythroid 2-related factor 2 (Rattus norvegicus) (UniProt O54968); experiment: Induction of Nrf2 nuclear translocation in rat PC-12 cells assessed as SNP-induced GSH-px level at 2.5 uM incubated for 1 hr followed by SNP stimulation and measured after 24 hrs (reference value: 37.70 +/- 2.88 mU/mg); type: cell-based; settings: time 25.0 hrs
T1 sequence (whole entry): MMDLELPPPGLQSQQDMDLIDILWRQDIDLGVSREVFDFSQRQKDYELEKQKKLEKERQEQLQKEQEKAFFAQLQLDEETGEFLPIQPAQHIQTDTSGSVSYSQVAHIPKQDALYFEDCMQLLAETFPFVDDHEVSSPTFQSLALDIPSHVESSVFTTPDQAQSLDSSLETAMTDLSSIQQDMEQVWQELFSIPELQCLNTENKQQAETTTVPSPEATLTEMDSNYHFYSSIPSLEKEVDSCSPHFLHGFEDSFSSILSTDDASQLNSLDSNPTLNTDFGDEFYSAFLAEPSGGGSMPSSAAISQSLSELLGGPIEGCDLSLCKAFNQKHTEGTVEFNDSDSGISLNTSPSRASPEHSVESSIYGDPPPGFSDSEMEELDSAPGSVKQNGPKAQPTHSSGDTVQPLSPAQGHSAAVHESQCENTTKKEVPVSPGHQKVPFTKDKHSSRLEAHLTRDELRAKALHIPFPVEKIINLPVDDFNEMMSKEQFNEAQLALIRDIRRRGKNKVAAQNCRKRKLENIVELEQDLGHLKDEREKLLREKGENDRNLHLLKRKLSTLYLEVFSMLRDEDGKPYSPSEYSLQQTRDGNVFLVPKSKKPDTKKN

[4] = Half life in Sprague-Dawley rat at 20 mg/kg, po measured upto 24 hrs by LC-MS/MS analysis; type: ADME, organism-based; settings: in vivo
PC-12 [5] = experiment: Inhibition of H2O2-induced apoptosis in rat PC-12 cells assessed as effect on cell morphology incubated for 1 hr followed by H2O2 stimulation and measured after 5 hrs by Hoechst 33258 staining based fluorescence microscopy; type: functional; settings: dose 2.5-10 µM, time 6.0 hrs
[6] = Cmax in Sprague-Dawley rat at 2 mg/kg, iv measured upto 24 hrs by LC-MS/MS analysis; type: ADME, organism-based; design: route intravenous, dose 2 mg/kg, time <=24; settings: in vivo
[7] = AUC (0 to infinity) in Sprague-Dawley rat at 20 mg/kg, po measured upto 24 hrs by LC-MS/MS analysis; type: ADME, organism-based; design: route oral, dose 20 mg/kg, time <=24; settings: in vivo
PC-12 [8] = experiment: Inhibition of H2O2-induced apoptosis in rat PC-12 cells assessed as reduction in condensed nuclei incubated for 1 hr followed by H2O2 stimulation and measured after 5 hrs by Hoechst 33258 staining based fluorescence microscopy; type: functional, cell-based; settings: dose 2.5-10 µM, time 6.0 hrs
[9] = molecular target: T1, Nuclear factor erythroid 2-related factor 2 (Rattus norvegicus); experiment: Induction of Nrf2 nuclear translocation in rat PC-12 cells assessed as SNP-induced SOD level at 5 uM incubated for 1 hr followed by SNP stimulation and measured after 24 hrs (reference value: 23.74 +/- 2.02 U/mg); type: cell-based; settings: time 25.0 hrs
[10] = molecular target: T1, Nuclear factor erythroid 2-related factor 2 (Rattus norvegicus); experiment: Induction of Nrf2 nuclear translocation in rat PC-12 cells assessed as SNP-induced SOD level at 10 uM incubated for 1 hr followed by SNP stimulation and measured after 24 hrs (reference value: 23.74 +/- 2.02 U/mg); type: cell-based; settings: time 25.0 hrs
[11] = Tmax in Sprague-Dawley rat at 20 mg/kg, po measured upto 24 hrs by LC-MS/MS analysis; type: ADME, organism-based; settings: in vivo
[12] = molecular target: T1, Nuclear factor erythroid 2-related factor 2 (Rattus norvegicus); experiment: Induction of Nrf2 nuclear translocation in rat PC-12 cells assessed as SNP-induced GSH-px level incubated for 1 hr followed by SNP stimulation and measured after 24 hrs; type: cell-based; settings: dose 2.5-10 µM, time 25.0 hrs
Rattus norvegicus [13] = experiment: Neuroprotective activity in Sprague-Dawley rat model of middle cerebral artery occlusion-induced ischemic injury assessed as decrease in IL-1beta level at 3 to 30 mg/kg, ip administered TID and measured after 24 hrs by ELISA; type: functional, organism-based; settings: dose 3-30 mg/kg
Rattus norvegicus [14] = experiment: Neuroprotective activity in Sprague-Dawley rat model of middle cerebral artery occlusion-induced ischemic injury assessed as decrease in TNF-alpha level at 3 to 30 mg/kg, ip administered TID and measured after 24 hrs by ELISA; type: functional, organism-based; settings: dose 3-30 mg/kg
PC-12 [15] = experiment: Cytoprotective activity against H2O2-induced cell death in rat PC-12 cells assessed as increase in cell viability at 10 uM incubated for 1 hr followed by H2O2 stimulation and measured after 5 hrs by MTT assay; type: functional; settings: time 6 hrs
[16] = molecular target: T1, Nuclear factor erythroid 2-related factor 2 (Rattus norvegicus); experiment: Induction of Nrf2 nuclear translocation in rat PC-12 cells assessed as H2O2-induced SOD level at 5 uM incubated for 1 hr followed by H2O2 stimulation and measured after 5 hrs (reference value: 29.69 +/- 1.65 U/mg); type: cell-based; settings: time 6.0 hrs
[17] = molecular target: T1, Nuclear factor erythroid 2-related factor 2 (Rattus norvegicus); experiment: Induction of Nrf2 nuclear translocation in rat PC-12 cells assessed as H2O2-induced GSH-px level at 10 uM incubated for 1 hr followed by H2O2 stimulation and measured after 5 hrs (reference value: 45.92 +/- 3.64 mU/mg); type: cell-based; settings: time 6.0 hrs
Rattus norvegicus [18] = experiment: Neuroprotective activity in Sprague-Dawley rat model of middle cerebral artery occlusion-induced ischemic injury assessed as improvement in behavioral changes at 3 to 30 mg/kg, ip administered TID and measured after 24 hrs; type: functional, organism-based; settings: dose 3-30 mg/kg
[19] = Toxicity in […] assessed as body weight at 400 mg/kg, ip observed after immediately (reference value: 24.4 to 28.4 g); type: organism-based; settings: in vivo
PC-12 [20] = experiment: Inhibition of SNP-induced apoptosis in rat PC-12 cells assessed as reduction in condensed nuclei incubated for 1 hr followed by SNP stimulation and measured after 24 hrs by Hoechst 33258 staining based fluorescence microscopy; type: functional, cell-based; settings: dose 2.5-10 µM, time 25.0 hrs
[21] = Toxicity in […] assessed as body weight at 400 mg/kg, ip measured on day 7 (reference value: 24.4 to 28.4 g); type: organism-based; settings: in vivo, 168 h, time 7 day
Rattus norvegicus [22] = experiment: Neuroprotective activity in Sprague-Dawley rat model of middle cerebral artery occlusion-induced ischemic injury assessed as increase in SOD level at 3 to 30 mg/kg, ip administered TID and measured after 24 hrs by ELISA; type: functional, organism-based; settings: dose 3-30 mg/kg
PC-12 [23] = experiment: Cytoprotective activity against H2O2-induced cell death in rat PC-12 cells assessed as increase in cell viability incubated for 1 hr followed by H2O2 stimulation and measured after 5 hrs by LDH assay; type: functional, cell-based; settings: time 6.0 hrs
Rattus norvegicus [24] = experiment: Neuroprotective activity in Sprague-Dawley rat model of middle cerebral artery occlusion-induced ischemic injury assessed as infarction volume at 30 mg/kg, ip administered TID and measured after 6 hrs by TTC staining based assay (reference value: 28.67 +/- 2.90 %); type: functional
PC-12 [25] = experiment: Cytoprotective activity against SNP-induced cell death in rat PC-12 cells assessed as increase in cell viability at 10 uM incubated for 1 hr followed by SNP stimulation and measured after 24 hrs by MTT assay; type: functional; settings: time 25 hrs

COc1ccc(-c2nc(-c3ccccc3O)n(-c3ccc(S(N)(=O)=O)cc3)n2)c(O)c1
Tmax [1]: 4.98 min | inhibition (PC-12 [2]): Dose-dependent effect | Activity [3]: 42.5 mU/mg | half-life [4]: 4.26 h | inhibition (PC-12 [5]): Dose-dependent effect | Cmax [6]: 2750 ng/mL | AUC(0-inf) [7]: 14200 ng·h/mL | inhibition (PC-12 [8]): Dose-dependent effect | Activity [9]: 34.9 U/mg | Activity [10]: 39.1 U/mg | Tmax [11]: 2 h | Activity [12]: Dose-dependent effect | Activity (Rattus norvegicus [13]): Active | Activity (Rattus norvegicus [14]): Active | Activity (PC-12 [15]): 30% | Activity [16]: 38.9 U/mg | Activity [17]: 77.9 mU/mg | Activity (Rattus norvegicus [18]): Active | Activity [19]: 24.6 g | inhibition (PC-12 [20]): Dose-dependent effect | Activity [21]: 25.7 g | Activity (Rattus norvegicus [22]): Active | Activity (PC-12 [23]): Dose-dependent effect | Activity (Rattus norvegicus [24]): 18.06% | Activity (PC-12 [25]): 30%
